Experiments:
[1] = system: pressor response to angiotensin II; assay: Inhibition of pressor response to angiotensin II in conscious rats; type: in vivo; details: Rattus norvegicus, po, orally, change in mean arterial pressure in response to intravenous angiotensin II, read-out: IC50 (dose of compound needed to produce 50% inhibition of the control response to angiotensin II)
Experimental: Rats are prepared with indwelling femoral arterial and venous catheters and a stomach tube (Gellai et al., Kidney Int. 15:419, 1979). Two to three days following surgery the rats are placed in a restrainer and blood pressure is continuously monitored from the arterial catheter with a pressure transducer and recorded on a polygraph. The change in mean arterial pressure in response to intravenous injections of […] angiotensin II is compared at various time points prior to and following the administration of the compounds intravenously or orally at doses of 0.1 to 300 mg/k g. The dose of compound needed to produce 50% inhibition of the control response to angiotensin II (IC50) is used to estimate the potency of the compounds.

human AT-1 receptors = biological target: T1, human AT-1 receptors (Homo sapiens, UniProt P30556); assay: Radioligand binding assay, 125I-angiotensin II displacement; details: human AT-1 receptors expressed in mouse cell line L h AT-1-D6; 80 pM 125I-angiotensin II; 1 hour at 25° C.; read-out: IC50 (concentration of antagonist needed to displace 50% of the total specifically bound angiotensin II)
T1 construct: expressed in transfected cells
T1 sequence (P30556 1-359): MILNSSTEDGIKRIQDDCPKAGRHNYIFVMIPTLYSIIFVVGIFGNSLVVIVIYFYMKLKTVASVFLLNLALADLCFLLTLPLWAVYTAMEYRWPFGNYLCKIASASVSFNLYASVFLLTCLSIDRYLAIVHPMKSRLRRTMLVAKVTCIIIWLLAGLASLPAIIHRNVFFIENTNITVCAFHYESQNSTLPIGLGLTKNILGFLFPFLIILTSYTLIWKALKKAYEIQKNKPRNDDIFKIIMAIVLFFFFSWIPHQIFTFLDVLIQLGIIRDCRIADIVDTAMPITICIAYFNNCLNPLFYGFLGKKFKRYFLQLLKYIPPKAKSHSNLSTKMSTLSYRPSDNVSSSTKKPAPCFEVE
Experimental: The radioligand binding assay is a modification of a method previously described in detail (Gunther et al., Circ. Res. 47:278, 1980). A stable clone of human AT-1 receptors expressed in the mouse cell line L h AT-1-D6 is used. Cells are incubated in Tris buffer with 80 pM of 125I-angiotensin II with or without angiotensin II antagonists for 1 hour at 25° C. The incubation is terminated by rapid filtration and receptor bound ^125 I-angiotensin II trapped on the filter is quantitated with a gamma counter. The potency of angiotensin II antagonists is expressed as the IC50 which is the concentration of antagonist needed to displace 50% of the total specifically bound angiotensin II.

Work on `Br.CCCCc1ncc(/C=C(\Cc2cccs2)C(=O)Oc2ccc3c(c2)CCC3)n1Cc1ccc(C(=O)O)c2ccccc12` [Example 1, E-α-[[2-n-butyl-1-[(4-carboxy-1-naphthaleneyl)methyl]-1H-imidazol-5-yl]methylene]-2-thiophenepropanoic Acid Indan-5-yl Ester, Hydrobromide] yielded an ED50 [1] of 0.053 mg/kg and an IC50 (human AT-1 receptors) of 342 nM.

— US5395847A, “Imidazolyl-alkenoic acids” (SmithKline Beecham Corporation, priority 1994, dated 1995)
